{
  "source": "paper PMC9740789",
  "about": "“Investigation of In Vitro and In Vivo Metabolism of α-Amanitin in Rats Using Liquid Chromatography-Quadrupole Time-of-Flight Mass Spectrometric Method” (Molecules, 2022)",
  "key": {"[1]": {"experiment": "In vitro MetID in CLM and HLM", "type": "in vitro ADME, cynomolgus monkey, human", "conditions": "in vitro MetID with GSH in liver microsomes of 5 species", "procedure": "(§1) Therefore, in vitro and in vivo MetID were conducted to explore any possible different metabolites between the two systems. The in vitro and in vivo MetID samples were analyzed by a LC-qTOF-MS, and the data were used to elucidate a metabolite of α-amanitin using PeakView® and MetabolitePilot™. The structure of the metabolite of α-amanitin was predicted by MetabolitePilot™. The fragmentation pattern of the predicted metabolite ion from product ion scan was compared to the fragmentation pattern of the parent ion using PeakView®.\nIn vitro MetID was conducted in 5 species (mouse, rat, cynomolgus monkey, dog, and human) of liver microsomes. Cofactors (NADPH solution A and B, 5 mM UDPGA, and 0.5 mM GSH), compound (2 mg/mL of α-amanitin), and DW were mixed and pre-incubated for 5 min at 37 °C. After the pre-incubation, 20 μL of liver microsome (20 mg/mL) was added to 380 μL of cofactor mixture and incubated for 0 and 120 min at 37 °C. After the incubation for each time point, 150 μL of the mixture was transferred to 450 μL of 50% ACN in MeOH for stopping the reaction. Then the mixture was centrifuged at 10,000 rpm for 5 min. Then 550 μL of the supernatant was collected in a fresh E-tube and evaporated for 4 h. After evaporation, samples were reconstituted with 60 μL of 50% MeOH with 5 mM ammonium formate. […]"}, "[2]": {"experiment": "Rat in vivo MetID in pooled rat plasma", "conditions": "pooled rat plasma after IV 1 mg/kg", "procedure": "as §1\nFor rat in vivo MetID, rat plasma samples collected after IV administration of α-amanitin with the dose of 1 mg/kg were pooled according to the Hamilton pooling method. Then 3 μL of DMSO was added to the 300 μL of pooled rat plasma. A control sample was made by mixing 300 μL of blank rat plasma and 3 μL of 0.5 mg/mL α-amanitin. Eight hundred microliter of 50% ACN in MeOH was added to the pooled rat plasma mixture and a control sample, respectively. Then the mixture was centrifuged at 10,000 rpm for 5 min. Then 900 μL of the supernatants was collected to a fresh E-tube and evaporated for 4 h. After evaporation, samples were reconstituted with 120 μL of 50% MeOH with 5 mM ammonium formate. After centrifugation at 10,000 rpm for 5 min, 100 μL of reconstituted sample was transferred to a LC-vial.\nThe high-resolution TOF full scan was used for metabolite profiling. […]"}, "[3]": {"type": "in vitro ADME, rat", "conditions": "for Long-term stability, mean accuracy / Freeze-thaw stability, mean accuracy / Short-term stability, mean accuracy: rat plasma, LC-qTOF-MS, triplicate or more; for Long-term stability, mean accuracy: 2 weeks, –20 °C; for Freeze-thaw stability, mean accuracy: 3 cycles, –20 °C and RT; for Short-term stability, mean accuracy: 4 h, RT", "procedure": "To evaluate the stability of α-amanitin in rat plasma under the actual experimental environments, some stability tests were also conducted. The accuracy (%) and precision (% CV) of the stability test met the acceptance criteria of ±25%, identifying α-amanitin was stable under the short-term, long-term, and freeze-thaw conditions.\nThe method qualification was performed with “fit-for-purpose” criteria which are suitable for discovery stage research. The qualification contained seven levels of STD and three levels of QC in duplicate. […] Preliminary stability tests were performed at low, medium, and high QC in rat plasma. The stability test was performed under three different conditions: a short-term, a long-term, and a freeze-thaw condition. The short-term stability test was conducted at room temperature (RT) for 4 h. The long-term stability was conducted at –20 °C for 2 weeks. The freeze-thaw stability was conducted for three freeze and thaw cycles at –20 °C and RT. The extraction recovery of protein precipitation was evaluated by analyzing the difference between extracted Medium-QC (165 ng/mL) samples and post-extraction QC samples. The post-extraction QC sample was prepared by spiking the α-amanitin after protein precipitation.\nThe precision and accuracy of the acceptance criteria for this qualification runs were within ± 25% which are also similar to the discovery-stage bioanalytical criteria in pharmaceutical industry. All experiments were performed in triplicate or more."}, "[4]": {"experiment": "Semi-mass balance study in rats", "type": "in vivo, rat", "conditions": "for dose excreted: Sprague-Dawley, rat", "procedure": "The excretion characteristic of α-amanitin after IV and PO administration is shown in Table 7, and the time to recovery of α-amanitin profile is shown in Figure 5. The recovery represents the percentage of the excreted amount (mg) to the administrated amount (mg).\nA semi-mass balance study was performed to explore the major elimination route of α-amanitin in rats. A non-radiolabeled α-amanitin was used for the semi-mass balance study which seems acceptable due to low metabolic turn-over of α-amanitin.\nFor the semi-mass balance study, the housed rats were prepared with a bile duct cannulation and administrated by IV bolus in a lateral tail vein or by PO at 1 mg/kg for each dosing route. Urine and feces were collected using a metabolic cage (Jeungdo Bio & Plant co., Seoul, Republic of Korea), and bile was collected through a bile duct cannula. The sampling time interval were 0–4, 4–8, 8–24, and 24–48 h after administration. The urine, bile, and feces samples were stored at –20 °C until further analysis."}},
  "note": "Like-named read-outs stand apart in the source and are kept apart here.",
  "data": [
    {"smiles": "CC[C@H](C)[C@@H]1NC(=O)CNC(=O)[C@@H]2Cc3c([nH]c4cc(O)ccc34)[S@+]([O-])C[C@H](NC(=O)CNC1=O)C(=O)N[C@@H](CC(N)=O)C(=O)N1C[C@H](O)C[C@H]1C(=O)N[C@@H]([C@@H](C)[C@@H](O)CO)C(=O)N2", "note": "[α-amanitin]", "values": [
      {"measurement": "Reactive metabolites (GSH adducts)", "setting": "[1]", "value": "no reactive metabolites with GSH adducts were detected"},
      {"measurement": "Other metabolites in in vivo rat plasma", "setting": "[2]", "value": "no other significant metabolites"},
      {"measurement": "Long-term stability, mean accuracy", "setting": "[3]; high QC 1820 ng/mL", "value": 103, "unit": "%"},
      {"measurement": "Long-term stability, mean accuracy", "setting": "[3]; low QC 15.0 ng/mL", "value": 106, "unit": "%"},
      {"measurement": "Long-term stability, mean accuracy", "setting": "[3]; medium QC 165 ng/mL", "value": 118, "unit": "%"},
      {"measurement": "Freeze-thaw stability, mean accuracy", "setting": "[3]; high QC 1820 ng/mL", "value": 114, "unit": "%"},
      {"measurement": "Freeze-thaw stability, mean accuracy", "setting": "[3]; low QC 15.0 ng/mL", "value": 94.9, "unit": "%"},
      {"measurement": "Freeze-thaw stability, mean accuracy", "setting": "[3]; medium QC 165 ng/mL", "value": 103, "unit": "%"},
      {"measurement": "Short-term stability, mean accuracy", "setting": "[3]; high QC 1820 ng/mL", "value": 95.7, "unit": "%"},
      {"measurement": "Short-term stability, mean accuracy", "setting": "[3]; low QC 15.0 ng/mL", "value": 81.6, "unit": "%"},
      {"measurement": "Short-term stability, mean accuracy", "setting": "[3]; medium QC 165 ng/mL", "value": 80.5, "unit": "%"},
      {"measurement": "Stability in rat plasma (in words)", "setting": "[3]; short-term, long-term, and freeze-thaw conditions, acceptance criteria ±25%", "value": "stable"},
      {"measurement": "dose excreted", "setting": "[4]; feces, bile duct cannulated rats, IV bolus 1 mg/kg, collection 0–48 h, excreted amount/administered amount, unchanged α-amanitin, LC-qTOF-MS, read-out: Recovery in feces", "value": "< 0.01", "unit": "%"},
      {"measurement": "dose excreted", "setting": "[4]; feces, bile duct cannulated rats, PO 1 mg/kg, collection 0–48 h, excreted amount/administered amount, unchanged α-amanitin, LC-qTOF-MS, read-out: Recovery in feces", "value": 22, "unit": "%"},
      {"measurement": "dose excreted", "setting": "[4]; urine, bile duct cannulated rats, IV bolus 1 mg/kg, collection 0–48 h, excreted amount/administered amount, unchanged α-amanitin, LC-qTOF-MS, read-out: Recovery in urine", "value": 67.9, "unit": "%"},
      {"measurement": "dose excreted", "setting": "[4]; urine, bile duct cannulated rats, PO 1 mg/kg, collection 0–48 h, excreted amount/administered amount, unchanged α-amanitin, LC-qTOF-MS, read-out: Recovery in urine", "value": 1.45, "unit": "%"},
      {"measurement": "dose excreted", "setting": "[4]; bile duct cannulated rats, IV bolus 1 mg/kg, collection 0–48 h, excreted amount/administered amount, unchanged α-amanitin, LC-qTOF-MS, read-out: Recovery in bile", "value": 1, "unit": "%"},
      {"measurement": "dose excreted", "setting": "[4]; bile duct cannulated rats, PO 1 mg/kg, collection 0–48 h, excreted amount/administered amount, unchanged α-amanitin, LC-qTOF-MS, read-out: Recovery in bile", "value": 0.05, "unit": "%"},
      {"measurement": "dose excreted", "setting": "[4]; rats, IV 1 mg/kg, urine + bile + feces, 0–48 h, read-out: Total recovery", "value": 68.9, "unit": "%"},
      {"measurement": "dose excreted", "setting": "[4]; rats, PO 1 mg/kg, urine + bile + feces, 0–48 h, read-out: Total recovery", "value": 23.5, "unit": "%"},
      {"measurement": "Time within which most of the administered α-amanitin was excreted in urine", "setting": "[4]; rats, IV 1 mg/kg", "value": "≤ 8", "unit": "h"}
    ]}
  ]
}
